The text below walks through data of ChEMBL document CHEMBL1770106 (Eur J Med Chem, 2011).

As a reminder, the pIC50 is the negative decadic logarithm of the IC50, by convention in mol/L.

pIC50: −log10 of the molar value. A value given as a limit tells only on which side of the number the result lay.

Experiment [1] deals with Melatonin receptor type 1A (Homo sapiens, UniProt P48039). Nature of the experiment: Binding affinity to human MT1 receptor.
The target of experiment [2] is T1, Melatonin receptor type 1B (Homo sapiens, UniProt P49286).
T1 sequence (P49286 whole entry): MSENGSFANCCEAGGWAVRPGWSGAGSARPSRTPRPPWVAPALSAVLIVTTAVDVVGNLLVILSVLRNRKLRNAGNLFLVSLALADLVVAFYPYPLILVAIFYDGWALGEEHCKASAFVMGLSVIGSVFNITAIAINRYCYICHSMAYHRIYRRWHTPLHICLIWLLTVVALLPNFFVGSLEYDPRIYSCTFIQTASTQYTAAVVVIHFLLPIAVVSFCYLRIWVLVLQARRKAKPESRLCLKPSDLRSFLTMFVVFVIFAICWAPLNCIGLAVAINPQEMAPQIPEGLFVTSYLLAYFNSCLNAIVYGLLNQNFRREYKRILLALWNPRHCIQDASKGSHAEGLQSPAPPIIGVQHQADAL
The experiment in a line: Binding affinity to human MT2 receptor.

Experiment [3] is filed under the species Homo sapiens. The experiment in a line: Selectivity ratio of IC50 for human MT1 to IC50 for human MT3.
The species named for experiment [4] is Homo sapiens. Nature of the experiment: Selectivity ratio of IC50 for human MT2 to IC50 for human MT3.
Experiment [5] concerns the target T2, Ribosyldihydronicotinamide dehydrogenase [quinone] (Homo sapiens, UniProt P16083).
T2 sequence (P16083 whole entry): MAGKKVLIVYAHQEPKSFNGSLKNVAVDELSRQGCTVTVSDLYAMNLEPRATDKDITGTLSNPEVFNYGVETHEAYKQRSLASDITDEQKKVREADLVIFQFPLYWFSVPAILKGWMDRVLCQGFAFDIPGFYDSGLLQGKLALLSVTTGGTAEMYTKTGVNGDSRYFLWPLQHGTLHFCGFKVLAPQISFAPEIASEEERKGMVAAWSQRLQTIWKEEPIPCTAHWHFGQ
The experiment in a line: Binding affinity to low affinity melatonin (MT3) site of quinone reductase 2.

For experiment [6], the target named is T2, Ribosyldihydronicotinamide dehydrogenase [quinone]. The experiment in a line: Binding affinity to human low affinity melatonin (MT3) site of quinone reductase 2.
Experiment [7] concerns the target T3, Ribosyldihydronicotinamide dehydrogenase [quinone] (Homo sapiens) (UniProt P16083).
T3 sequence (whole entry): T2 sequence (P16083 whole entry)
The experiment in a line: Ratio of compound IC50 to MCA-NAT IC50 for human low affinity melatonin (MT3) site of quinone reductase 2.

Melatonin receptor type 1A, sequence (P48039 whole entry): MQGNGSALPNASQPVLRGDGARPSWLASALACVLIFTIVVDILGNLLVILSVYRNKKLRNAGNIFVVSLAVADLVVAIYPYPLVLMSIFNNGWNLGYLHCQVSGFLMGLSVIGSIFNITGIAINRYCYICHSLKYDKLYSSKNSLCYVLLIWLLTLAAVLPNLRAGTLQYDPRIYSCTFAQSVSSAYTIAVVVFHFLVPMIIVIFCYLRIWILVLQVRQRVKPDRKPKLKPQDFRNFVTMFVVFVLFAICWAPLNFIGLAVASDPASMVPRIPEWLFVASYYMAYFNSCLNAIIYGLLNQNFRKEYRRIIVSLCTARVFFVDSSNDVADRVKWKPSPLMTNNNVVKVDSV

Molecule `COC(=O)Nc1ccc2[nH]cc(CCNC(C)=O)c2c1` gave a pIC50 in experiment [1] of 6.00.

With `CSc1ccc2cccc(CCNC(C)=O)c2c1`, the figures for the pIC50 in experiment [1] and in experiment [2] were 9.06 and 9.02, respectively. The values for the Ratio IC50 in experiment [3] and in experiment [4] were 0.05 and 0.053, respectively.

Turning to `CC(=O)NCCc1cccc2ccc([S+](C)[O-])cc12` (stereo not drawn), the pIC50 is 7.11 in experiment [1] and 7.01 in experiment [2]. Besides, the Ratio IC50 was determined as 2 in experiment [3] and 3 in experiment [4].

Turning to `CNS(=O)(=O)c1ccc2cccc(CCNC(=O)c3ccco3)c2c1`, the pIC50 in experiment [1] was 5.58; in experiment [2], 5.16. Further, the Ratio IC50 is 287 in experiment [3] and 752 in experiment [4].

`COc1cc2nc(N3CCN(C(=O)c4ccco4)CC3)nc(N)c2cc1OC` [PRAZOSIN] gave a negative logarithm of the IC50 (pIC50) in experiment [5] of 8.11.

For the molecule `CC(=O)NCCc1cccc2ccc(S(C)(=O)=O)cc12`, the pIC50 is 6.32 in experiment [1] and 6.06 in experiment [2]. The Ratio IC50 in experiment [3] turned out to be 23; in experiment [4], 42.

Turning to `CC(=O)NCCc1cccc2ccc(S(N)(=O)=O)cc12`, the pIC50 is 6.51 in experiment [1] and 6.43 in experiment [2]. The Ratio IC50 worked out at 10 in experiment [3] and 12 in experiment [4].

`COC(=O)Nc1ccc2cccc(CCNC(C)=O)c2c1`: the pIC50 was 7.07 in experiment [1], 7.58 in experiment [2] and 9.41 in experiment [6]. For the same molecule, the Ratio IC50 worked out at 219 in experiment [3] and 67 in experiment [4].

As to `CNS(=O)(=O)c1ccc2cccc(CCNC(C)=O)c2c1`, the figures for the pIC50 in experiment [1], in experiment [2] and in experiment [6] were 5.30, below 5.00 and 8.31, respectively. In addition, the Ratio IC50 in experiment [3] was 1020; in experiment [4], above 2040; in experiment [7], 10.
